From US11021526B2, “DSG2-derived peptides” (Asclepiumm Taiwan Co., Ltd, priority 2016, dated 2021)
Entries after “also recorded” stand apart in the source; their conditions may differ. Where a SMILES comes first, the peptide text is derived from it.

Assays:
[1] = test system: human umbilical vein endothelial cells (HUVEC); experiment: HUVEC tube formation assay (angiogenesis assay); type: cell-based; settings: for inhibition of angiogenesis / HUVEC tube structure: HUVEC on Matrigel, five-hour incubation; for collapse of volume of tube structure compared to PBS-treated control: matrigel induced vasculature of HUVEC cells, PBS-dissolved peptides
Excerpt: Overnight starved human umbilical vein endothelial cells (HUVEC) were collected and adjusted to 1.5×10^4 cells/well (in a 96-well plate) with endothelial cell growth medium and then seeded cells on the matrigel-coated well. Different peptides and their modified forms by D-form non-nature amino acids and/or cyclization by adding N- and C-terminal Cystines; also SEQ132 is a reversal of the direction of the peptide backbone SEQ6 (retro modification): (SEQ17, SEQ78, SEQ97, MR9 DF, CMR9C, CMR9C DF, MR9D6 DF, CMR9D6C DF and SEQ132) or control PBS were added into well for five-hour incubation at 37° C. Each well was photographed at ×40 magnification through an upright microscope. Total tube lengths were quantified by using ImageJ software.

[2] = test system: rat eyes choroidal neovascularization; experiment: Rat laser-induced choroidal neovascularization model; type: in vivo; settings: injected into vitreous body, 14 days after laser; Eylea 200 μg/5 μl, SEQ97 500 μg/5 μl; n=10
Experimental: The animals were fully anesthetized with a mixture of ketamine hydrochloride/xylazine hydrochloride (7:1, v/v) by intramuscular injection into the thigh muscle at 1 mL/kg. Mydrin®-P ophthalmic solution (Santen Pharmaceutical Co., Ltd.) was instilled into the eyes to dilate the pupils. Laser (wavelength: 532 nm) was used to irradiate the right eye of each animal using a Slit Lamp SL-130 (Carl Zeiss Meditec AG) and a Multicolor Laser Photocoagulator MC-300 (NIDEK Co., Ltd.). Then the peptide dosing formulation was injected into the vitreous body of the right eye using a microsyringe (MS-N10, Ito Corporation) and a 33 G needle (Ito Corporation). Fourteen days after laser irradiation, a 4% FITC-dextran solution was administered into the tail vein in a volume of 1 mL/animal. Then the animals were euthanized by overdose of an anesthetic. The eyeballs were removed and fixed in 4% paraformaldehyde-phosphate buffer for 12-24 hours. Choroidal flat mounts were prepared under a stereoscopic microscope (EZ-4, Leica Microsystems). […]
Eyes of rats were irradiated by 532 nm wave length laser and intraveally treated with peptides (SEQ97), Eylea or PBS. […] After treatment (PBS, Eylea or SEQ97) for 14 days, the photographs of the choroidal neovascularization sites were taken and quantified with ImageJ software. […]

[3] = test system: MDCK cells; experiment: EMT assay (HGF-induced EMT, inter-nuclear distance); settings: HGF 2.5 ng/ml
Experimental: MDCK cells (800 cells/well) were seeded onto 96-well plate and incubated in 37° C. and 5% CO2 to become 10% sub-confluence. Then EMT was triggered by adding culture medium with cell scattering factor HGF (R&D system, 2.5 ng/ml) and tested peptides were added (SEQ2˜SEQ31) to block EMT. To measure the inter-nuclear distance, random images were captured at ×50 magnification using an upright microscope. The inter-nuclear distance was measured from the center of one nucleus to that of a neighboring/adjacent nucleus. The distance between the two nuclei was measured by using ImageJ software.

MAEKWKIARDDDDDD [SEQ97]
inhibition of angiogenesis / HUVEC tube structure [1]: inhibit angiogenesis | inhibition of rat eyes choroidal neovascularization [2]: significantly inhibit

CC[C@H](C)[C@H](NC(=O)[C@H](CCCCN)NC(=O)[C@H](Cc1c[nH]c2ccccc12)NC(=O)[C@H](CCCCN)NC(=O)[C@H](CCC(=O)O)NC(=O)[C@H](C)NC(=O)[C@@H](N)CCSC)C(=O)N[C@@H](C)C(=O)N[C@@H](CCCNC(=N)N)C(=O)N[C@@H](CCC(N)=O)C(=O)N[C@@H](CCC(=O)O)C(=O)O [SEQ15, MAEKWKIARQE] (H-MAEKWKIARQE-OH; N-terminus and C-terminus assumed)
inhibition of HGF (hepatocyte growth factor) induced EMT (epithelial-mesenchymal transition) [3]: excellent inhibiting abilities similar to SEQ6

Eylea: Eylea, comparator treatment (200 μg/5 μl) in the rat choroidal neovascularization model [reference compound]
inhibition of rat eyes choroidal neovascularization [2]: significantly inhibit

CMAEKWKIARDDDDDDC [CMR9D6C DF]
collapse of volume of tube structure compared to PBS-treated control [1]: 95%

VSTSEQRAIKWKEAM [SEQ132]
inhibition of angiogenesis / HUVEC tube structure [1]: strong efficacy to inhibit HUVEC tube structure

RRRRRRRMAEKWKIAR [SEQ78]
inhibition of angiogenesis / HUVEC tube structure [1]: inhibit angiogenesis

CC[C@H](C)[C@H](NC(=O)[C@H](CC(C)C)NC(=O)[C@H](Cc1ccccc1)NC(=O)[C@H](CCC(N)=O)NC(=O)[C@@H](NC(=O)[C@H](CCC(=O)O)NC(=O)[C@H](CO)NC(=O)[C@H](CCCNC(=N)N)NC(=O)CNC(=O)[C@H](CC(C)C)NC(=O)[C@H](CCCCN)NC(=O)[C@H](CCCCN)NC(=O)[C@@H](N)CCC(=O)O)[C@@H](C)CC)C(=O)N[C@@H](CO)C(=O)N[C@@H](CC(=O)O)C(=O)O [SEQ8, EKKLGRSEIQFLISD] (H-EKKLGRSEIQFLISD-OH; N-terminus and C-terminus assumed)
inhibition of HGF (hepatocyte growth factor) induced EMT (epithelial-mesenchymal transition) [3]: inhibited

MAEKWKIARDDDDDD [MR9D6 DF]
collapse of volume of tube structure compared to PBS-treated control [1]: 95%

CC[C@H](C)[C@H](NC(=O)[C@@H](NC(=O)[C@H](CO)NC(=O)[C@H](Cc1ccccc1)NC(=O)[C@@H](N)CO)C(C)C)C(=O)N[C@@H](CC(=O)O)C(=O)N[C@@H](CCCCN)C(=O)N1CCC[C@H]1C(=O)N1CCC[C@H]1C(=O)NCC(=O)N[C@@H](CCSC)C(=O)N[C@@H](C)C(=O)N[C@@H](CCC(=O)O)C(=O)N[C@@H](CCCCN)C(=O)N[C@@H](Cc1c[nH]c2ccccc12)C(=O)O [SEQ5, SFSVIDKPPGMAEKW] (H-SFSVIDKPPGMAEKW-OH; N-terminus and C-terminus assumed)
inhibition of HGF (hepatocyte growth factor) induced EMT (epithelial-mesenchymal transition) [3]: inhibited

CC[C@H](C)[C@H](NC(=O)[C@H](CCCCN)NC(=O)[C@H](Cc1c[nH]c2ccccc12)NC(=O)[C@H](CCCCN)NC(=O)[C@H](CCC(=O)O)NC(=O)[C@H](C)NC(=O)[C@@H](N)CCSC)C(=O)N[C@@H](C)C(=O)N[C@@H](CCCNC(=N)N)C(=O)O [SEQ17, MAEKWKIAR] (H-MAEKWKIAR-OH; N-terminus and C-terminus assumed)
inhibition of HGF (hepatocyte growth factor) induced EMT (epithelial-mesenchymal transition) [3]: advantageous effect in the inhibition of EMT; also recorded: excellent inhibiting abilities similar to SEQ6
